Patent US10889573B2, “Anthelmintic quinoline-3-carboxamide derivatives” (Bayer Animal Health GMBH, priority 2016, dated 2021)

How the values were obtained:
C. elegans Slo-1a = C. elegans Slo-1a (Caenorhabditis elegans, UniProt Q95V25); settings: pE50 (negative decadic logarithm of EC50), CHO cells expressing C. elegans Slo-1a, voltage sensitive dye
Protocol: In Vitro Assay 1: C. elegans Slo-1a—Action at a Recombinant C. elegans Cell Line
Cells were cultured at 37° C. and 5% CO2 in MEMalpha with Gutamax I (Invitrogen, Nr.: 32571), supplemented with 10% (v/v) heat inactivated fetal bovine serum (Invitrogen, Nr.: 10500), G418 (1 mg/ml, Invitrogen, Nr.: 10131). Cells were detached using Accutase (Sigma, Nr.: A6964).
Membrane Potential Measurements
Laboratory compound testing was performed on 384-well microtiter plates (MTPs, Greiner, Nr.: 781092). 8000 cells/well were plated onto 384-well MTPs and cultured for 20 to 24 hours at 37° C. and 5% CO2. After removal of the cell culture medium, the cells were washed once with tyrode (150 mM NaCl, 0.3 mM KCl, 2 mM CaCl2, 1 mM MgCl2, 0.8 mM NaH2PO4, 5 mM Glucose, 28 mM Hepes, pH 7.4) and then loaded with the voltage sensitive dye of the Membrane Potential Assay Kit diluted in tyrode for 1 h at room temperature.
After starting the measurement of fluorescence using a FLIPR Tetra (Molecular Devices, Exc. 510-545 nm, Emm. 565-625 nm), test compounds were added followed by the addition of KCl tyrode (final assay concentration: 70 mM KCl, 2 mM CaCl2, 1 mM MgCl2, 0.8 mM NaH2PO4, 5 mM Glucose, 28 mM Hepes, pH 7.4, including the voltage sensitive dye). The measurement was completed after 7 minutes.
The data were evaluated by using the ActivityBase XLfit software (IDBS) for curve fitting and calculation of the half-maximal effective concentration (EC50) and are reported as negative decadic logarithm (pE50).

[1] = tested on: Dirofilaria immitis third-stage larvae; assay: In vitro assay 4: Dirofilaria immitis (DIROIM L4), motility; settings: 72 h, read-out: EC50 (reduction of motility)
Cooperia curticei = settings: for mortality at 4 ppm / mortality at 20 ppm: Cooperia curticei, 120 h, read-out: activity (larval mortality)
Protocol: In Vitro Assay 6: Cooperia curticei (COOPCU L3)
Solvent: dimethyl sulfoxide
Approximately 40 nematode larvae (Cooperia curticei) are transferred into a test tube containing the compound solution.
After 5 days percentage of larval mortality is recorded. 100% efficacy means all larvae are killed; 0% efficacy means no larvae are killed.

[2] = tested on: Dirofilaria immitis microfilariae; assay: In vitro assay 3: Dirofilaria immitis microfilariae (DIROIM L1), motility; settings: 72 h, read-out: EC50 (reduction of motility), 72 h incubation
[3] = tested on: Nippostrongylus brasiliensis; assay: In vitro assay 2: Nippostrongylus brasiliensis (NIPOBR), acetylcholine esterase readout; settings: read-out: activity (reduction of AChE compared to negative control); for inhibition at 1 µg/mL: 1 μg/ml; for inhibition at 10 µg/mL: 10 μg/ml
Protocol: In Vitro Assay 2: Nippostrongylus brasiliensis (NIPOBR)
Adult Nippostrongylus brasiliensis were washed with saline buffer containing 100 U/ml penicillin, 0.1 mg/ml streptomycin and 2.5 μg/ml amphotericin B. Test compounds were dissolved in DMSO and worms were incubated in medium in a final concentration of 10 μg/ml (10 ppm) respectively 1 μg/ml (1 ppm). An aliquot of the medium was used to determine the acetylcholine esterase activity in comparison to a negative control. The principle of measuring acetylcholine esterase as readout for anthelmintic activity was described in Rapson et al (1986) and Rapson et al (1987).

Haemonchus contortus = settings: 120 h, read-out: activity (larval mortality)
Protocol: In Vitro Assay 7: Haemonchus contortus (HAEMCO L3)
Solvent: dimethyl sulfoxide
Approximately 40 larvae of the red stomach worm (Haemonchus contortus) are transferred into a test tube containing compound solution.
After 5 days the percentage of larval mortality is recorded. 100% efficacy means all larvae are killed, 0% efficacy means no larvae are killed.

Chain of C. elegans Slo-1a (Q95V25 whole entry): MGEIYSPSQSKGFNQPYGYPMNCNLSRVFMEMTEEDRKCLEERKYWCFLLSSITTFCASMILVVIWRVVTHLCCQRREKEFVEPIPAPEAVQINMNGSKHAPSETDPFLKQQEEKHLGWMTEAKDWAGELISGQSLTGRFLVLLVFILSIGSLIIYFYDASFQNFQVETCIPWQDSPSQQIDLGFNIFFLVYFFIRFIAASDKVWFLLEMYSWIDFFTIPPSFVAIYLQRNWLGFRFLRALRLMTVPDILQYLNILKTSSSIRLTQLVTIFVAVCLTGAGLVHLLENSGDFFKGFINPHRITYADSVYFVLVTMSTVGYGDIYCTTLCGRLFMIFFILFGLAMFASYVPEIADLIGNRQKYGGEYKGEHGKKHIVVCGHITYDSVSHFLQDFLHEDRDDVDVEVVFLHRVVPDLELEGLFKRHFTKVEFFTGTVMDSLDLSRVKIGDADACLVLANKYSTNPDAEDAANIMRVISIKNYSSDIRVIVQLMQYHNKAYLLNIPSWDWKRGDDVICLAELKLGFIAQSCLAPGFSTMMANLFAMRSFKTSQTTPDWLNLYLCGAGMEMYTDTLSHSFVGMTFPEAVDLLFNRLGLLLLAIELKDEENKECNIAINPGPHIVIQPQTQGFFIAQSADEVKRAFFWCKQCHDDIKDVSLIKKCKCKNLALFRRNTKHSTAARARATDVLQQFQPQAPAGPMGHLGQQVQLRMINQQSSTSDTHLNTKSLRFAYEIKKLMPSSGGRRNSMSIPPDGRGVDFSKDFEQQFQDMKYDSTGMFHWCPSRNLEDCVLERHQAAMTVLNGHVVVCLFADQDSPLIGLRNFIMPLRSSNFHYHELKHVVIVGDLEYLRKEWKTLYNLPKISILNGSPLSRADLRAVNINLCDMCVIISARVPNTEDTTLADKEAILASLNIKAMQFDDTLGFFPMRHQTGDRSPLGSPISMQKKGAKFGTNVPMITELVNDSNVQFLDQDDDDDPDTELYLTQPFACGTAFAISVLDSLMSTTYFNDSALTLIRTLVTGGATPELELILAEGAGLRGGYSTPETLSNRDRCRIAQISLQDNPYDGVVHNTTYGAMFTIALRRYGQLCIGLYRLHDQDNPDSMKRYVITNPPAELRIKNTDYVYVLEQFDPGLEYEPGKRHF

SMILES | EC50 (C. elegans Slo-1a) [nM] | EC50 [1] [µg/mL] | mortality at 4 ppm (Cooperia curticei) [%] | mortality at 20 ppm (Cooperia curticei) [%] | EC50 [2] [µg/mL] | inhibition at 1 µg/mL [3] [%] | inhibition at 10 µg/mL [3] [%] | mortality at 20 ppm (Haemonchus contortus) [%] | activity (larval mortality) (Cooperia curticei; 0.8 ppm, after 5 days) [%] | mortality at 4 ppm (Haemonchus contortus) [%]
O=C(N[C@H]1CCOc2ccccc21)c1cnc2c(-c3ccc(F)c(Cl)c3)cccc2c1N1CCC(O)C1 (mixture of isomers) [Example 196] | 3.16 to 31.6 | < 0.1 | 90 | 100 | < 0.1 | – | – | – | – | –
Cc1cc(C)cc(-c2cccc3c(Cl)c(C(=O)N[C@H]4CCCc5ccccc54)cnc23)c1 [Example 1, 4-chloro-8-(3,5-dimethylphenyl)-N-[(1S)-1,2,3,4-tetrahydronaphthalen-1-yl]quinoline-3-carboxamide] | 31.6 to 316 | < 1 | – | – | < 0.1 | – | – | – | – | –
O=C(N[C@H]1CCCc2ccccc21)c1cnc2c(-c3cc(Cl)cc(Cl)c3)cccc2c1Cl [Example 2] | 3.16 to 31.6 | < 1 | – | – | < 10 | – | – | – | – | –
O=C(N[C@H]1CCOc2ccccc21)c1cnc2c(-c3cc(Cl)c(F)c(Cl)c3)cc(F)cc2c1N1CCOCC1 [Example 43] | < 3.16 | < 0.1 | – | – | < 0.1 | > 80 | > 80 | – | – | –
CN(C)c1c(C(=O)N[C@H]2CCOc3ccccc32)cnc2c(-c3ncccc3F)cccc12 [Example 62] | 31.6 to 316 | < 0.1 | – | – | < 1 | – | > 80 | – | – | –
COc1cc(-c2cccc3c(N(C)C)c(C(=O)N[C@H]4CCOc5ccccc54)cnc23)ccn1 [Example 64] | 3.16 to 31.6 | < 0.1 | – | – | < 0.1 | – | > 80 | – | – | –
O=C(N[C@H]1CCc2ccccc21)c1cnc2c(-c3cc(Cl)cc(Cl)c3)cccc2c1N1CC(F)C1 [Example 119] | 3.16 to 31.6 | < 0.1 | – | – | < 0.1 | > 80 | > 80 | – | – | –
CN(C)c1c(C(=O)N[C@H]2CCOc3ccccc32)cnc2c(-c3ccc(F)cc3Cl)cc(F)cc12 [Example 180] | 3.16 to 31.6 | – | – | – | < 0.1 | – | – | 80 | – | –
O=C(N[C@H]1CCOc2ccccc21)c1cnc2c(-c3ccc(F)c(Cl)c3)cccc2c1N1CCOCC1 [Example 190] | – | – | – | – | – | – | – | – | 80 | –
O=C(N[C@H]1CCOc2ccccc21)c1cnc2c(-c3cccc(F)c3Cl)cccc2c1N1CCOCC1 [Example 238] | < 3.16 | < 0.1 | – | 80 | < 0.1 | > 80 | – | – | – | –
O=C(N[C@H]1CCOc2ccccc21)c1cnc2c(-c3cc(Cl)cc(Cl)c3)cccc2c1N1CCC[C@H]1C(=O)O [Example 261, 1-{8-(3,5-dichlorophenyl)-3-[(4S)-3,4-dihydro-2H-chromen-4-ylcarbamoyl]quinolin-4-yl}-L-proline] | – | < 0.1 | – | – | < 0.1 | > 80 | – | – | – | –
O=C(O)CNc1c(C(=O)N[C@H]2CCOc3ccccc32)cnc2c(-c3cc(Cl)cc(Cl)c3)cccc12 [Example 276] | 31.6 to 316 | – | – | 90 | < 0.1 | > 80 | – | 80 | – | –
CN(C)c1c(C(=O)N[C@H]2CCOc3ccccc32)cnc2c(-c3c(F)cccc3F)cccc12 [Example 277] | < 3.16 | < 0.1 | – | – | < 0.1 | > 80 | – | – | – | –
O=C(N[C@H]1CCOc2ccccc21)c1cnc2c(-c3c(F)cccc3F)c(F)ccc2c1N1CCOCC1 [Example 278] | < 3.16 | < 0.1 | – | – | < 0.1 | – | – | – | – | –
O=C(N[C@H]1CCOc2ccccc21)c1cnc2c(-c3cc(Cl)cc(Cl)c3)cccc2c1N1CC[C@@H](O)C1 [Example 283] | < 3.16 | < 0.1 | – | – | < 0.1 | > 80 | – | – | – | –
C[C@H]1CN(c2c(C(=O)N[C@H]3CCOc4ccccc43)cnc3c(-c4cc(Cl)cc(Cl)c4)cccc23)CCO1 [Example 290] | < 3.16 | < 0.1 | – | – | < 0.1 | > 80 | – | – | – | –
COCCNc1c(C(=O)N[C@H]2CCc3ccccc32)cnc2c(-c3cc(Cl)cc(Cl)c3)cccc12 [Example 298] | < 3.16 | – | – | 80 | – | – | – | – | – | –
O=C(N[C@H]1CCOc2ccccc21)c1cnc2c(-c3cccc(Cl)c3Cl)c(C(F)(F)F)ccc2c1N1CCOCC1 [Example 314] | < 3.16 | < 0.1 | – | 90 | < 0.1 | > 80 | – | – | – | –

SMILES | EC50 (C. elegans Slo-1a) [nM] | EC50 [1] [µg/mL] | mortality at 4 ppm (Cooperia curticei) [%] | mortality at 20 ppm (Cooperia curticei) [%] | EC50 [2] [µg/mL] | inhibition at 1 µg/mL [3] [%] | inhibition at 10 µg/mL [3] [%] | mortality at 20 ppm (Haemonchus contortus) [%] | activity (larval mortality) (Cooperia curticei; 0.8 ppm, after 5 days) [%] | mortality at 4 ppm (Haemonchus contortus) [%]
CN(C)c1c(C(=O)N[C@H]2CCOc3ccccc32)cnc2c(-c3cccc(Cl)c3Cl)c(C(F)(F)F)ccc12 [Example 315] | < 3.16 | < 0.1 | – | 80 | < 0.1 | > 80 | – | – | – | –
O=C(N[C@H]1CCOc2ccccc21)c1cnc2c(-c3cccc(OC(F)(F)F)c3)cccc2c1N1CCOCC1 [Example 322] | < 3.16 | < 0.1 | – | 80 | < 0.1 | > 80 | – | – | – | –
COCCOc1c(C(=O)N[C@H]2CCOc3ccccc32)cnc2c(-c3cc(Cl)cc(Cl)c3)cccc12 [Example 338] | < 3.16 | < 0.1 | 90 | 90 | < 0.1 | > 80 | > 80 | – | – | –
N#CCc1c(C(=O)N[C@H]2CCOc3ccccc32)cnc2c(-c3cc(Cl)cc(Cl)c3)cccc12 [Example 355, 4-(cyanomethyl)-8-(3,5-dichlorophenyl)-N-[(4S)-3,4-dihydro-2H-chromen-4-yl]quinoline-3-carboxamide] | < 3.16 | < 0.1 | – | – | < 0.1 | > 80 | – | – | – | –
NC(=O)Cc1c(C(=O)N[C@H]2CCOc3ccccc32)cnc2c(-c3cc(Cl)cc(Cl)c3)cccc12 [Example 360, 4-(2-amino-2-oxoethyl)-8-(3,5-dichlorophenyl)-N-[(4S)-3,4-dihydro-2H-chromen-4-yl]quinoline-3-carboxamide] | 3.16 to 31.6 | < 0.1 | – | – | < 0.1 | > 80 | – | – | – | –
N#Cc1c(C(=O)N[C@H]2CCOc3ccccc32)cnc2c(-c3cc(Cl)cc(Cl)c3)cccc12 [Example 362, 4-cyano-8-(3,5-dichlorophenyl)-N-[(4S)-3,4-dihydro-2H-chromen-4-yl] quinoline-3-carboxamide] | – | < 0.1 | – | – | < 0.1 | > 80 | > 80 | – | – | –
O=C(N[C@H]1CCOc2ccccc21)c1cnc2c(-c3cc(Cl)cc(Cl)c3)cccc2c1N1CC(F)C1 [Example 392] | 3.16 to 31.6 | < 0.1 | – | – | < 0.1 | > 80 | – | 80 | – | 80
Cc1ccc(F)c(-c2cccc3c(N(C)C)c(C(=O)N[C@H]4CCOc5ccccc54)cnc23)c1 [Example 437] | < 3.16 | < 0.1 | 80 | – | < 0.1 | > 80 | – | – | – | –
O=C(N[C@H]1CCOc2ccccc21)c1cnc2c(-c3cc(Cl)sc3Cl)cccc2c1N1CCOCC1 [Example 441] | < 3.16 | < 0.1 | – | – | < 0.1 | > 80 | – | – | – | –
O=C(N[C@H]1CCOc2ccccc21)c1cnc2c(-c3sccc3Cl)cccc2c1N1CCOCC1 [Example 442] | < 3.16 | < 0.1 | – | – | < 0.1 | – | – | – | – | –
Cc1ccc(C)c(-c2cccc3c(N(C)C)c(C(=O)N[C@H]4CCOc5ccccc54)cnc23)c1 [Example 471] | 3.16 to 31.6 | – | – | 80 | < 0.1 | > 80 | – | – | – | 80
C=Cc1c(C(=O)N[C@H]2CCOc3ccccc32)cnc2c(-c3cc(Cl)cc(Cl)c3)cccc12 [Example 478] | < 3.16 | < 0.1 | – | – | < 0.1 | > 80 | – | – | – | –
CN(C)c1c(C(=O)NC2CSc3ccccc32)cnc2c(-c3cc(Cl)cc(Cl)c3)cccc12 (centres unmarked) [Example 493] | 3.16 to 31.6 | < 0.1 | – | – | < 0.1 | – | – | – | – | –
CCc1c(C(=O)N[C@H]2CCOc3ccccc32)cnc2c(-c3cccc(OC(F)(F)F)c3)cccc12 [Example 570] | 3.16 to 31.6 | < 0.1 | – | – | < 0.1 | > 80 | – | – | – | –
Cc1cc(-c2cccc3c(N4CCOCC4)c(C(=O)N[C@H]4CCOc5ccccc54)cnc23)cc(C(C)(C)C)c1 [Example 587] | < 3.16 | < 0.1 | – | 80 | < 0.1 | > 80 | – | – | – | –
CN(C)c1c(C(=O)N[C@H]2CCOc3ccccc32)cnc2c(-c3cc(C#N)cc(Cl)c3Cl)cccc12 [Example 624] | < 3.16 | – | 80 | 100 | < 0.1 | > 80 | – | 80 | – | –
CC(=O)N(C)Cc1c(C(=O)N[C@H]2CCOc3ccccc32)cnc2c(-c3cc(Cl)cc(Cl)c3)cccc12 [Example 631] | < 3.16 | – | 100 | 100 | < 10 | > 80 | – | 100 | – | 100
